Consider 5 compounds from ChEMBL document CHEMBL5096167, “Recent advances in development of hetero-bivalent kinase inhibitors” (Eur J Med Chem, 2021).

In experiment [1] the target is Mitogen-activated protein kinase 1 (Homo sapiens, UniProt P28482).
Experiment [2] addresses Proto-oncogene tyrosine-protein kinase Src (Gallus gallus, UniProt P00523). Nature of the experiment: Binding affinity to chicken 6-His tagged c-Src expressed in Escherichia coli Bl21 (DE3) assessed as dissociation constant.
In experiment [3] the target is Casein kinase II subunit alpha (Homo sapiens, UniProt P68400). The experiment is described as follows: Inhibition of CK2alpha in human MIA PaCa-2 cells incubated for 5 hrs by western blot analysis. Type of experiment: cell-based.
Experiment [4] addresses Proto-oncogene tyrosine-protein kinase Src (Homo sapiens, UniProt P12931). Nature of the experiment: Irreversible inhibition of wild type c-Src (unknown origin) assessed as inhibition constant by fluorimetric assay.
Experiment [5] addresses Mitogen-activated protein kinase 7 (Mus musculus, UniProt Q9WVS8). Nature of the experiment: Activation of ERK5 in MEF cells. Type of experiment: cell-based.

Chain of Mitogen-activated protein kinase 1 (P28482 whole entry): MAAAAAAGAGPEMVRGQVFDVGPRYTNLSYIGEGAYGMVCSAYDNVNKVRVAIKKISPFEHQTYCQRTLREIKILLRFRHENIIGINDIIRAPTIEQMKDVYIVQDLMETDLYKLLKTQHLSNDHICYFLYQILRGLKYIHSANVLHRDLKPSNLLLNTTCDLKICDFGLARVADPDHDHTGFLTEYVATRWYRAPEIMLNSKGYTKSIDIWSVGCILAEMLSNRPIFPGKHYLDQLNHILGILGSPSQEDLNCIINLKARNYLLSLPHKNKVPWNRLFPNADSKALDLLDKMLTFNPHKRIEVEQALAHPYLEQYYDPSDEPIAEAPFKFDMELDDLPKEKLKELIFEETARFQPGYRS
Chain of Casein kinase II subunit alpha (P68400 whole entry): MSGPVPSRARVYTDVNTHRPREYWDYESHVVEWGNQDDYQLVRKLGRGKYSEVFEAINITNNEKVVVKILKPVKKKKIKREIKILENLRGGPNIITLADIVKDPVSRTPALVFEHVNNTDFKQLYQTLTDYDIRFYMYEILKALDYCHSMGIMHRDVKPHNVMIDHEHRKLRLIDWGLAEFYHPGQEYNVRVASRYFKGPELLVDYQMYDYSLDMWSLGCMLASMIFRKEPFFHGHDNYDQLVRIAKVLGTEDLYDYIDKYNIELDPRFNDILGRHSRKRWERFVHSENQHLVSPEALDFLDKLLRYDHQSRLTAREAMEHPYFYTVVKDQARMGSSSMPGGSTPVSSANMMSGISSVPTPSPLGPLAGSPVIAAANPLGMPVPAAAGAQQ
Chain of Mitogen-activated protein kinase 7 (Q9WVS8 whole entry): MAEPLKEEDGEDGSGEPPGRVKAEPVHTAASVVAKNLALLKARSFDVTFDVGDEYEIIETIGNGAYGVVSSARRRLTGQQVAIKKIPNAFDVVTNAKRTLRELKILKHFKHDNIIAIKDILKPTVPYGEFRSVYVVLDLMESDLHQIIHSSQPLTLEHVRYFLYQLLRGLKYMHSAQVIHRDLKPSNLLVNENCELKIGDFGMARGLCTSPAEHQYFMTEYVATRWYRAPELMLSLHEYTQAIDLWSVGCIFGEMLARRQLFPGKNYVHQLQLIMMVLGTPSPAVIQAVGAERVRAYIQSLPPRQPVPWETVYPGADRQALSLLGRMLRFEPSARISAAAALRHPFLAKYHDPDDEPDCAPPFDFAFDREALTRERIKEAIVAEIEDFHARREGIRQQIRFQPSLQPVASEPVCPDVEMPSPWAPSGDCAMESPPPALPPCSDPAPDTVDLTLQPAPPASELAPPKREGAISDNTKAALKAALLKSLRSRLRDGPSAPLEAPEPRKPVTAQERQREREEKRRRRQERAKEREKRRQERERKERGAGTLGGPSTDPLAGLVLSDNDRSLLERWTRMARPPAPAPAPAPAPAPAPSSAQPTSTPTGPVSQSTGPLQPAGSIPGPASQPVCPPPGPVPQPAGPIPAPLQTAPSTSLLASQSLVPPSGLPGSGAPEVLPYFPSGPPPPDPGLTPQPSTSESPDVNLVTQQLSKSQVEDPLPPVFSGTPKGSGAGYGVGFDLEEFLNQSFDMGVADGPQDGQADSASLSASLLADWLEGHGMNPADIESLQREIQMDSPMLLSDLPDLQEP
Chain of Proto-oncogene tyrosine-protein kinase Src (Homo sapiens, UniProt P12931) (P12931 2-536 limits assumed): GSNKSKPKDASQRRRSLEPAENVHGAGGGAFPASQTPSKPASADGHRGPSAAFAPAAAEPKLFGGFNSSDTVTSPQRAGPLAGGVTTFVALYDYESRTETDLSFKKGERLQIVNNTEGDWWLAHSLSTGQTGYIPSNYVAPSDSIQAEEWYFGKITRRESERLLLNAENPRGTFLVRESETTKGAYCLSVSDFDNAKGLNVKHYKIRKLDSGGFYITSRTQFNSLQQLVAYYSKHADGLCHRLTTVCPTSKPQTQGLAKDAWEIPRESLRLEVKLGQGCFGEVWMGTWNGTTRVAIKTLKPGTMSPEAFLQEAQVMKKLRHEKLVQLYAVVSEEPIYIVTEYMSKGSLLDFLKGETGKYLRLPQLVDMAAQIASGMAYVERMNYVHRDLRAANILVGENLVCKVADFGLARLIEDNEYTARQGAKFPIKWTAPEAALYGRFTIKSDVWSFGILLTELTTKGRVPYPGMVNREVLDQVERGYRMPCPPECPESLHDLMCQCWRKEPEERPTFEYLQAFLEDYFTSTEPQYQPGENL

By IC50 is commonly meant the concentration that gives 50% inhibition. The low end stands for inhibition by little substance, the high end for a need for much substance. On to `C#CCCCCNC(=O)CCCCCn1nc(N)c2cc(-c3c(-c4ccccc4)nn4ccccc34)nnc21`, for which, in experiment [1], 1.2 µM corresponded to half-maximal inhibition (IC50).

Broadly, the Kd is the equilibrium constant for the complex coming apart. Regarding `CCC(C)[C@@H](NC(=O)[C@@H](CCC(=O)O)NC(=O)[C@@H](CCC(=O)O)NC(=O)[C@@H](CCC(=O)O)NC(C)=O)C(=O)N[C@H](Cc1ccc(NC(=O)CCCCCn2cc(-c3ccc(-n4nc(-c5ccc(Cl)cc5)c5c(N)ncnc54)cc3)nn2)cc1)C(=O)NCC(=O)N[C@H](CCC(=O)O)C(=O)N[C@H](Cc1ccccc1)C(=O)N[C@H](CCC(=O)O)C(=O)N[C@H](C)C(N)=O` (stereo not given in full), in experiment [2], the dissociation constant (Kd) turned out to be 0.00028 µM.

The compound `CC(=O)OCOC(=O)CN(CC(=O)OCOC(C)=O)C(=O)CN(CC(=O)OCOC(C)=O)C(=O)CN(CC(=O)OCOC(C)=O)C(=O)CCCCCCCn1cnc2c(Br)c(Br)c(Br)c(Br)c21` had a half-maximal inhibitory concentration (IC50) in experiment [3] of 0.047 µM.

Take `O=C(CCS)Nc1cccc(Nc2nccc(Nc3cc(C4CC4)[nH]n3)n2)c1`: the Ki in experiment [4] is 0.02 µM.

As for `CN1CCN(c2cnc3c(C4CCN(C(=O)c5ccc(OC(F)(F)F)cc5N)CC4)ncnc3c2)CC1` [BAY-885], the IC50 in experiment [5] worked out at 0.12 µM.
